We go through 1 substance from patent publication US11273217B2, “Cancer treatment composition combining anti-CD26 antibody and other anticancer agent” (Y's AC Co., Ltd., priority 2015, dated 2022).

Data set [1] relates to H2452 cells. In words: MTT cell growth assay, H2452. Particulars: day 2. The format is cell-based. On the procedure: (§1) MESO1 or H2452 cells (2×10^3 cells/well) were inoculated to a 96-well plate. One hour later, cisplatin or pemetrexed was added thereto at 10^−9, 10^−8, 10^−7, 10^−6, 10^−5, or 10^−4 M (n=6). At day 2, MTT assay was conducted.
H2452 cells (2×10^3 cells/well) were inoculated to a 96-well plate. One hour later, the combination of 0.03, 0.3, or 1 μM cisplatin and 0.1, 3, or 10 μg/ml YS110, or the combination of 0.01, 0.1, or 0.3 μM pemetrexed and 0.1, 3, or 10 μg/ml YS110 was added thereto (n=6). At day 2, MTT assay was conducted. Significant difference was tested by two-tailed t-test (vs Cont).
(§2) MESO1 cells (2×10^3 cells/well) or H2452 cells (2×10^3 cells/well) were inoculated to a 96-well plate. One hour later, 0.3 μM cisplatin-0.1 μM pemetrexed combination, or YS110 (10 μg/ml) plus the 0.3 μM cisplatin-0.1 μM pemetrexed combination was added thereto (n=6). At day 2, MTT assay was conducted. Significant difference was tested by two-tailed t-test (vs Cont).
(§3) Gemcitabine was studied for its effect on the growth of a mesothelioma cell line. A mesothelioma cell line MESO1, JMN, H2452, or H226 (2×10^3 cells/well) was inoculated to a 96-well plate. One hour later, gemcitabine (10^−9, 10^−8, 10^−7, 10^−6, 10^−5, or 10^−4 M) was added thereto (N=6). 2 days later, MTT assay was conducted. Significant difference was tested by two-tailed t-test (vs Cont).
H2452 cells (2×10^3 cells/well) were inoculated to a 96-well plate. One hour later, gemcitabine (0, 10^−8, 3×10^−8, or 10^−7 M) and YS110 (0, 1, 3, or 10 μg/ml) were added thereto in combination. At day 2, MTT assay was conducted. Significant difference was tested by two-tailed t-test (vs Cont). Next, interaction in concomitant use of medications was studied (n=6). The interaction between YS110 and gemcitabine used concomitantly was analyzed by two-way ANOVA.
(§4) MESO1, JMN, H2452 or H226 cells (2×10^3 cells/well were inoculated to a 96-well plate. One hour later, 3×10^−8 M or 10^−7 M gemcitabine was added thereto by concomitant use with the combination of cisplatin (0, 0.1, 0.3, or 1 μM) and pemetrexed (0, 0.03, 0.1, or 0.3 μM) (n=6). At day 2, MTT assay was conducted.
(§5) The growth inhibitory effect of gemcitabine (10^−9 to 10^−4 M) was compared using MESO1, H2452, JMN, and H226 cell lines.
For orientation: Tetrazolium assays rely on reduction of a dye to a coloured formazan, in cell work by metabolically active cells.

The subject of data set [2] is MESO1 cells. In words: In vivo MESO1 cell growth in SCID mice (tumor weight). As to conditions: YS110 10 mg/kg, cisplatin 0.5 mg/kg, pemetrexed 50 mg/kg, intraperitoneal, days 1 and 4; tumor weight day 7. On the procedure:
MESO1 cells (3×10^5 cells/animal) were subcutaneously transplanted to the backs of female SCID mice. The day of transplantation was defined as day 0. YS110 (10 mg/kg) alone, cisplatin (0.5 mg/kg)-pemetrexed (50 mg/kg) used concomitantly, or YS110 (10 mg/kg) concomitantly used with the cisplatin-pemetrexed concomitant use was intraperitoneally administered to the mice twice (days 1 and 4). At day 7, their tumors were excised, and the tumor weights were measured. Significant difference was tested by two-tailed t-test (vs Cont).

For data set [3] the following is noted: in vivo; cited from earlier work.
Data set [4] concerns H2452 cells. Description: In vivo H2452 cell growth in SCID mice (tumor weight). As to conditions: YS110 10 mg/kg, cisplatin 0.5 mg/kg, pemetrexed 50 mg/kg, intraperitoneal, days 1 and 4; tumor weight day 7. On the procedure: H2452 cells (3×10^5 cells/animal) were subcutaneously transplanted to the backs of female SCID mice. The day of transplantation was defined as day 0. YS110 (10 mg/kg) alone, cisplatin (0.5 mg/kg)-pemetrexed (50 mg/kg) used concomitantly, or YS110 (10 mg/kg) used concomitantly with the cisplatin-pemetrexed concomitant use was intraperitoneally administered to the mice twice (days 1 and 4). At day 7, their tumors were excised, and the tumor weights were measured. Significant difference was tested by two-tailed t-test (vs Cont).

Data set [5] concerns CD26-positive malignant mesothelioma cell line JMN. As to conditions: mouse, in vivo.
Method: NOD/SCID (NOD/LtSz-scid) mice were maintained in a microisolator cage within a specific pathogen-free (SPF) facility and allowed to freely take sterilized diet and sterilized water.
1×10^7 cultured JMN cells were subcutaneously administered to 6- to 8-week-old female NOD/SCID mice. […] The same amount of PBS was administered to the control group. When a tumor became evidently visible, the tumor was excised, and its size was measured with a vernier caliper. The estimated tumor volume was determined by calculation according to the expression: π/6×L×W×W (Tomayko M M et al., Cancer Chemother Pharmacol. (1989) 24: 148-54). The statistical difference among the average tumor volumes of these groups were determined by Fisher's protected least-square differences (PLSD) multiple comparison test. Statistical analysis was conducted using SPSS software (IBM, Armonk, N.Y.).
The subject of data set [6] is MESO1 cells. In words: MTT cell growth assay, MESO1. In kind it is cell-based. As to conditions: day 2. On the procedure:
as §1
MESO1 cells (2×10^3 cells/well) were inoculated to a 96-well plate. One hour later, the combination of 0.3, 3, or 10 μM cisplatin and 0.1, 3, or 10 μg/ml YS110, or the combination of 0.03, 0.3, or 1 μM pemetrexed and 0.1, 3, or 10 μg/ml YS110 was added thereto. At day 2, MTT assay was conducted. Significant difference was tested by two-tailed t-test (vs Cont).
as §2, §3
MESO1 cells (2×10^3 cells/well) were inoculated to a 96-well plate. One hour later, gemcitabine (0, 10^−8, 3×10^−8, or 10^−7 M) and YS110 (0, 1, 3, or 10 μg/ml) were added thereto in combination. At day 2, MTT assay was conducted. Significant difference was tested by two-tailed t-test (vs Cont). Next, interaction in concomitant use of medications was studied (n=6). The interaction between YS110 and gemcitabine used concomitantly was analyzed by two-way ANOVA.
as §4
(§6) The growth inhibitory effects of cisplatin (10^−9 to 10^−4 M) and pemetrexed (10^−9 to 10^−4 M) were compared using the MESO1 and JMN cell lines.
as §5

For a further data set, the system named is JMN cells. In words: MTT cell growth assay, JMN. In kind it is cell-based. Particulars: gemcitabine 3×10^−10, 10^−9, or 3×10^−8 M and YS110 1, 3, or 10 μg/ml; day 2. On the procedure: as §3
JMN cells (2×10^3 cells/well) were inoculated to a 96-well plate. One hour later, gemcitabine (0, 3×10^−10, 10^−9, or 3×10^−8 M) and YS110 (0, 1, 3, or 10 μg/ml) were added thereto in combination. At day 2, MTT assay was conducted. Significant difference was tested by two-tailed t-test (vs Cont). Next, interaction in concomitant use of medications was studied (n=6). The interaction between YS110 and gemcitabine used concomitantly was analyzed by two-way ANOVA.
as §4, §6, §5

Setting [7] is: YS110 10 μg/ml plus 0.3 μM cisplatin-0.1 μM pemetrexed.
[8] abbreviates: gemcitabine 10^−8, 3×10^−8, or 10^−7 M and YS110 1, 3, or 10 μg/ml.

In the case of “YS110: humanized anti-CD26 antibody designed based on anti-CD26 mouse antibody 14D10; SEQ ID NO: 17 and 18”, the “effect of YS110 on the cell growth inhibitory effect of pemetrexed” value in the data set with H2452 cells [1] (0.01, 0.1, or 0.3 μM pemetrexed and 0.1, 3, or 10 μg/ml YS110) is listed as “potentiated”; in the data set with MESO1 cells [6] (0.03, 0.3, or 1 μM pemetrexed and 0.1, 3, or 10 μg/ml YS110), “potentiated”. The “effect of YS110 on the cell growth inhibitory effect of cisplatin” value is on record as “potentiated” in the data set on H2452 cells [1] (0.03, 0.3, or 1 μM cisplatin and 0.1, 3, or 10 μg/ml YS110); “potentiated” in the data set on MESO1 cells [6] (0.3, 3, or 10 μM cisplatin and 0.1, 3, or 10 μg/ml YS110). The “effect of YS110 on the cell growth inhibitory effect of cisplatin-pemetrexed” value with H2452 cells [1] (setting [7]) and in the data set with MESO1 cells [6] (setting [7]) was “potentiated” in each case. Besides, the “effect of YS110 on the growth inhibitory effect of gemcitabine” value in the data set on H2452 cells [1] (setting [8]), in the data set with MESO1 cells [6] (setting [8]) and in the data set with JMN cells was “potentiated” throughout. Moreover, the “effect of YS110 on the in vivo tumor growth inhibitory effect of cisplatin-pemetrexed” value in the data set with MESO1 cells [2] and in the data set with H2452 cells [4] was “potentiated” throughout. Besides, the “safety in phase I clinical trial” value in data set [3] was “demonstrated its safety”. Also, the “average body weight of the mice compared among the groups” value in data set [5] is given as “did not remarkably differ”.
